Common to all, as to assay type: physicochemical
A short description of series [1]: Release rate of pesticides from controlled release devices, one inch squares of 1/8 inch sheets (Example 3). An excerpt: Controlled release devices were made and tested to obtain their release rates. All thermoplastic polymers were formulated with 10 percent pesticide, 3 or 7 percent carbon black to absorb liquid pesticide, and 83 to 87 percent by weight of polymer and injection molded into thin sheets about ⅛ inch thick. […] The devices made from the remaining pesticides and thermoplastic polymers contained 7 percent of carbon black.
The devices made from S-113 urethane (a thermoset polymer) were made from a polymer mix containing 60% S-113, 40% castor oil and […] of TIPA catalyst by weight. The polymer mix comprised 90% of the total weight of the device. The pesticide, deltamethrin, comprised the remaining 10% of the device. No carbon black was used in this device. The polymer/pesticide mixture was cast into a ⅛ inch thick sheet and heated at about 60° C. for about 40 to 60 minutes to cure the cast sheet.
One inch squares were then cut from the thin sheets that were injection molded or cast and the squares were tested for release rates.

A short description of series [2]: Thermal decomposition of the pesticide during processing. The method, then: To have a safety cushion for operating conditions, it is beneficial to have a processing temperature of approximately 150° C.
(§1) The polymers evaluated included low melt polyethylene, polyurethane, two epoxies, silicone rubber, and a low melt polyethylene high in waxes to reduce thermal decomposition of the chlorpyrifos.

Series [3] in a line: Effect of carbon black binding carrier on release rate (Example 6). The note with it: active chemical 5 wt. %, high density polyethylene (MA 778-000), 6 weeks after fabrication. The protocol: Release rates were measured at 6 weeks after fabrication wherein samples were wiped weekly to remove surface accumulation of released active chemical.
A short description of series [4]: Release rate of lambda cyhalothrin from multi-layer barrier film. From the text:
The release rate of bioactive chemicals from the bonding layer 126 to the other layers is greater than the release rate of bioactive chemicals from the barrier film 110 to the exterior of the barrier film 110.

Series [5] is described as follows: Release rate versus lambda cyhalothrin concentration and polymer combination (Example 4).
Protocol: An experiment was conducted to determine the effect of lambda cyhalothrin (pyrethroid) concentration and insecticide/polymer combination on release rate of insecticide from the polymer.
Series [6] is described as follows: Release rate of 10 wt. % pyrethroid impregnated polymers (Example 5).
A short description of series [7]: Release rate of chlorpyrifos from polymer devices (Example 1). The note with it: 50° C. The protocol:
Experiments were conducted to determine the release rate of chlorpyrifos. Loading rates for the insecticide were either 5 wt. % (weight percent) or 10 wt. % depending on the polymer. Release rates were determined for all devices at 50° C.
as §1
Release rates ranged from 10 μg/cm^2/day for the silicone rubber to 0.3 μg/cm^2/day for Epoxy B.

The nature of series [8]: Release rate of pyrethrin from polymer systems (Example 2). The note with it: Pyrethrin I content 10%, 40° C. The protocol:
Studies were also conducted with similar polymer systems as in Example 1 but with 80% pure pyrethrin.

Setting [9] is: Polyethylene MA 778-000, 10 percent pesticide.
[10] abbreviates: Polyurethane 2200, 10 percent pesticide.
The mark [11] stands for this setting: Polyurethane 3100, 10 percent pesticide.

The structures appear in SMILES notation. Marks after values point to notes of the source that are not given here. Where only a bound is given, the exact number is not on record here.

For the molecule `CC1(C)[C@H](C(=O)O[C@H](C#N)c2cccc(Oc3ccccc3)c2)[C@@H]1/C=C(\Cl)C(F)(F)F` (racemic) [Lambda cyhalothrin], the “Release Rate” value in series [1] (EVA 763, 10 percent pesticide) turned out to be 27.3 μg/cm^2/day; in series [1] (setting [9]) it was 4.6 μg/cm^2/day; in series [1] (setting [10]), 0.7 μg/cm^2/day; in series [1] (setting [11]), 0.4 μg/cm^2/day; in series [3] (carbon black 0 wt. %) it was 1.78 μg/cm^2/day; in series [3] (carbon black 10 wt. %), 0.81 μg/cm^2/day. Further, in series [3] (carbon black 20 wt. %), the “Release Rate” value was found to be 0.61 μg/cm^2/day. For the same molecule, in series [2] (in the manufacturing process), the “temperature above which thermal decomposition and volatilization occurs” value was over 160 °C. Besides, the “release rate from barrier film” value in series [4] (preferred eight-layer embodiment) and in series [4] (six-layer embodiment) was “less than 0.002 μg per square centimeter of film per day” throughout. Besides, the “Pyrethroid Release Rate” value was 0.3 mg/cm^2/da in series [5] (Ethylvinyl Acetate (EVA), pyrethroid 1 wt. %); 2.2 mg/cm^2/da in series [5] (Ethylvinyl Acetate (EVA), pyrethroid 5 wt. %); 2.5 mg/cm^2/da in series [5] (Ethylvinyl Acetate (EVA), pyrethroid 10 wt. %); 0.9 mg/cm^2/da in series [5] (Polyurethane, pyrethroid 1 wt. %); 4.4 mg/cm^2/da in series [5] (Polyurethane, pyrethroid 5 wt. %); 8.3 mg/cm^2/da in series [5] (Polyurethane, pyrethroid 10 wt. %). In addition, the “Pyrethroid Release Rate” value in series [5] (Polyurethane/EVA (50/50), pyrethroid 1 wt. %) stood at 2.6 mg/cm^2/da; in series [5] (Polyurethane/EVA (50/50), pyrethroid 5 wt. %), 7.2 mg/cm^2/da; in series [5] (Polyurethane/EVA (50/50), pyrethroid 10 wt. %), 9.1 mg/cm^2/da.
With `Cc1c(F)c(F)c(COC(=O)[C@@H]2[C@H](/C=C(\Cl)C(F)(F)F)C2(C)C)c(F)c1F` (racemic) [Tefluthrin], the “Release Rate” value in series [1] (EVA 763, 10 percent pesticide) worked out at 40.4 μg/cm^2/day; in series [1] (setting [9]), 27.0 μg/cm^2/day; in series [1] (setting [10]), 25.0 μg/cm^2/day; in series [1] (setting [11]), 6.4 μg/cm^2/day; in series [6] (Ethylvinyl acetate), 4.3 mg/cm^2/da; in series [6] (Polyethylene) it was 2.2 mg/cm^2/da. The results for the “Release Rate” value in series [3] (carbon black 0 wt. %) and in series [3] (carbon black 10 wt. %) were 3.13 μg/cm^2/day and 0.71 μg/cm^2/day, respectively.
Regarding `CCOP(=S)(OCC)Oc1nc(Cl)c(Cl)cc1Cl` [Chlorpyrifos, chlorpyrifos], in series [2] (polymer processing), the “temperature above which excessive thermal decomposition occurred” value is over 240 °C. Also, the “Release Rate” value in series [7] (Epoxy A, chlorpyrifos content 5%) is given as under 0.1 μg/cm^2/da; in series [7] (Epoxy B, chlorpyrifos content 10%) it was 0.3 ± 0.1 μg/cm^2/da; in series [7] (Epoxy B, chlorpyrifos content 10%, listed as chlorpyrifos) it was 0.3 μg/cm^2/da; in series [7] (PE + Wax, chlorpyrifos content 10%), 1.9 ± 0.3 μg/cm^2/da; in series [7] (Polyurethane, chlorpyrifos content 5%, material exhibited excessive cracking), 2.1 ± 1.4^b μg/cm^2/da; in series [7] (Silicone, chlorpyrifos content 5%), 10.3 ± 3.5 μg/cm^2/da. Also, the “Release Rate” value in series [7] (Silicone, chlorpyrifos content 5%, listed as chlorpyrifos) turned out to be 10 μg/cm^2/da; in series [7] (Urethane, chlorpyrifos content 10%) it was 1.0 ± 0.3 μg/cm^2/da.
In the case of `CC1(C)C(C=C(Cl)Cl)C1C(=O)OC(C#N)c1cccc(Oc2ccccc2)c1` (stereo not shown) [Cypermethrin], the “Release Rate” value in series [1] (EVA 763, 10 percent pesticide) came out at 27.3 μg/cm^2/day; in series [1] (setting [9]), 4.6 μg/cm^2/day; in series [1] (setting [10]), 0.7 μg/cm^2/day; in series [1] (setting [11]), 0.4 μg/cm^2/day.
As to `CC1(C)[C@H](C(=O)O[C@H](C#N)c2cccc(Oc3ccccc3)c2)[C@@H]1C=C(Br)Br` [Deltamethrin], the “Release Rate” value turned out to be 7.2 μg/cm^2/day in series [1] (Alipmtic PS-49-100, 10 percent pesticide); 16.8 μg/cm^2/day in series [1] (Aromatic 80A, 10 percent pesticide); 8.0 μg/cm^2/day in series [1] (Pellethane 2102-55D, 10 percent pesticide); 8.8 μg/cm^2/day in series [1] (Pellethane 2102-80A, 10 percent pesticide); 25.2 μg/cm^2/day in series [1] (S-113 urethane, 10% pesticide, no carbon black).
As to `CC1(C)C(C=C(Cl)Cl)C1C(=O)OCc1cccc(Oc2ccccc2)c1` (stereo not shown) [Permethrin], the “Release Rate” value in series [1] (EVA 763, 10 percent pesticide) is recorded as 28.5 μg/cm^2/day; in series [1] (setting [9]), 4.0 μg/cm^2/day; in series [1] (setting [10]), 1.3 μg/cm^2/day; in series [1] (setting [11]), 1.4 μg/cm^2/day; in series [6] (Ethylvinyl acetate), 3.9 mg/cm^2/da; in series [6] (Polyethylene), 1.4 mg/cm^2/da.
On to `C=C/C=C\CC1=C(C)[C@@H](OC(=O)[C@@H]2[C@@H](C=C(C)C)C2(C)C)CC1=O` [Pyrethrin I], for which the “Release Rate” value in series [8] (Epoxy A) amounted to 0.5 ± 0.2 μg/cm^2/day; in series [8] (Epoxy B), 0.2 ± 0.1 μg/cm^2/day; in series [8] (Silicone), 21.2 ± 5.4 μg/cm^2/day; in series [8] (Urethane), 15.7 ± 7.1 μg/cm^2/day.
